In US20220411439A1, “POLYMORPHS OF A MACROCYCLIC KINASE INHIBITOR” (TURNING POINT THERAPEUTICS, INC., priority 2019, published 2022):
Like-named read-outs stand apart in the source and are kept apart here.

Target: T1, Ba/F3 KIF5B-RET (Homo sapiens, UniProt P07949, cells depend on it, form not given)
T1 construct: IC50 (nM); other: Experiment 1; other: Experiment 2; fused on or other part: P33176 (Kinesin-1 heavy chain)
Assay: Compound I anti-cell proliferation comparison (FIG. 5A, 5B)
Assay type: cell-based
Details: for GI50: read-out: IC50 (the source's name)
Source text: The KIF5B-RET gene was synthesized at GenScript and cloned into pCDH-CMV-MCS-EF1-Puro plasmid (System Biosciences, Inc). KIF5B-RET point mutation V804M and G810C were generated at GenScript by PCR and confirmed by sequencing. Ba/F3-KIF5B-RET wild type and mutant were generated by transducing Ba/F3 cells with lentivirus containing KIF5B-RET wide type or mutant. Stable cell lines were selected by puromycin treatment, followed by IL-3 withdrawal. Briefly, 5×10^6 Ba/F3 cells were transduced with lentivirus supernatant in the presence of 8 μg/mL protamine sulfate. The transduced cells were subsequently selected with 1 μg/mL puromycin in the presence of IL3-containing medium RPMI1640, plus 10% FBS. After 10-12 days of selection, the surviving cells were further selected for […] independent growth.
Two thousand cells per well were seeded in 384 well white plate for 24 hrs, and then treated with compounds for 72 hours (37° C., 5% CO2). Cell proliferation was measured using CellTiter-Glo luciferase-based ATP detection assay (Promega) following the manufactures's protocol. IC50 determinations were performed using GraphPad Prism software (GraphPad, Inc., San Diego, Calif.).

T1 sequence (P07949 whole entry G810C, form open, the tested form may be a part): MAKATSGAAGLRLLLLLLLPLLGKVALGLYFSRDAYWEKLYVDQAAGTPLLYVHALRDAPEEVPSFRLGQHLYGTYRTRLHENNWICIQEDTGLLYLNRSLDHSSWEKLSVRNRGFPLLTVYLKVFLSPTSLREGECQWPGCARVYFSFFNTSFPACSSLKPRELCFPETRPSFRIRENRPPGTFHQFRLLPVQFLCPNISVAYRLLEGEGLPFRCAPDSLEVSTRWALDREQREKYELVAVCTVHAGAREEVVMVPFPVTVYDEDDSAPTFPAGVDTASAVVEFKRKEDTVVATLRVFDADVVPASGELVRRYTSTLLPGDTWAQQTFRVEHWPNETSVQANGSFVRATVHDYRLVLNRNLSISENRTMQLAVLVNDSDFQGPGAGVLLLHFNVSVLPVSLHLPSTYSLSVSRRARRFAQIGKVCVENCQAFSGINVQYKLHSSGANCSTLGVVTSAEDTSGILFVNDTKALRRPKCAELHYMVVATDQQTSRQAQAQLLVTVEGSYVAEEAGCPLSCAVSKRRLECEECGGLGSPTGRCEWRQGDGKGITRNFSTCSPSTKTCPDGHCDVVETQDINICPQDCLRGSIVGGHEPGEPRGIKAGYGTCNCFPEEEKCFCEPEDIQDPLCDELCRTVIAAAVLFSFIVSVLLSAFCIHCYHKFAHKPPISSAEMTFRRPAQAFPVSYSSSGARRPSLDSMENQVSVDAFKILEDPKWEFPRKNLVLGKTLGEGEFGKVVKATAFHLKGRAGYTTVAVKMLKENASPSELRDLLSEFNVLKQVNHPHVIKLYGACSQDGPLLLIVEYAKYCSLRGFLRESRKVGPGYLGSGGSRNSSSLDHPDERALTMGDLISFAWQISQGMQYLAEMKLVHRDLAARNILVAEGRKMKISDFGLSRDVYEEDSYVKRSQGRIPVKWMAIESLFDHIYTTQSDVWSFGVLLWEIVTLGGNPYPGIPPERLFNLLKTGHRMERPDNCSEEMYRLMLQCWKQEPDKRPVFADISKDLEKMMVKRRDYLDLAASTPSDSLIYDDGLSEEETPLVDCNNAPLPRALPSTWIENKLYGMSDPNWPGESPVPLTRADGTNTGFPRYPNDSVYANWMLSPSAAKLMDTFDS

IC75 (Experiment 1)	IC90 (Experiment 1)	GI50 (Experiment 1)	IC75 (Experiment 2)	IC90 (Experiment 2)	GI50 (Experiment 2)	Compound
1021 nM	3450 nM	301 nM	791.4 nM	2370 nM	364 nM	COc1ccc(CN2C3CC2CN(c2ccc(-c4cc(OCC(C)(C)O)cn5ncc(C#N)c45)cn2)C3)cn1 [LOXO-292]
115.4 nM	720 nM	18.5 nM	214.3 nM	1030 nM	44.6 nM	CO[C@]1(C(=O)N[C@@H](C)c2ccc(-n3cc(F)cn3)nc2)CC[C@H](c2nc(C)cc(Nc3cc(C)[nH]n3)n2)CC1 [BLU-667]
